Patent publication US10294202B2, “Pyrrolidinones as herbicides” (FMC Corporation, priority 2013, dated 2019)
Read-outs that look alike come from different tables or passages of the source.

Assays:
velvetleaf = assay: Test A pre-/postemergence herbicide test; type: in vivo, Abutilon theophrasti; conditions: for Velvetleaf plant response rating: Preemergence, visual rating on 0 to 100 scale (0 no effect, 100 complete control); for pest or weed control at 500 g/ha / pest or weed control at 125 g/ha: Abutilon theophrasti, 240 h, read-out: Plant response rating, Velvetleaf
Summary of the method: (§1)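 Seeds sown in loam soil/sand blend received a preemergence directed soil spray of test chemical in non-phytotoxic solvent with surfactant; postemergence plants (2–10 cm, one- to two-leaf stage) were sprayed with the same formulation. After about 10 days in greenhouse, injury was rated visually versus untreated controls, 0 (no effect) to 100 (complete control).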

ryegrass, Italian = assay: Test A pre-/postemergence herbicide test; type: in vivo, Lolium multiflorum
Summary of the method: as §1

[1] = Postemergence, 125 g ai/ha, 0 to 100 scale, 0 no effect, 100 complete control
[2] = Postemergence, 500 g ai/ha, 0 to 100 scale (0 no effect, 100 complete control)
[3] = preemergence, 500 g ai/ha, 0 to 100 scale
[4] = 125 g ai/ha, visual rating, 0 to 100 scale, 0 no effect, 100 complete control, approximately 10 days, preemergence
[5] = Postemergence, 125 g ai/ha, 0 to 100 scale, 0 is no effect, 100 is complete control
[6] = preemergence, 500 g ai/ha, 0 to 100 scale, 0 is no effect and 100 is complete control
[7] = Postemergence, 125 g ai/ha, visual rating on 0 to 100 scale (0 no effect, 100 complete control), approx. 10 days
[8] = Preemergence, 125 g ai/ha, 0 to 100 scale where 0 is no effect and 100 is complete control
[9] = post-emergence, Postemergence, 500 g ai/ha, 0 to 100 scale (0 no effect, 100 complete control)
[10] = pre-emergence, preemergence, 500 g ai/ha, 0 to 100 scale
[11] = post-emergence, Postemergence, 125 g ai/ha, 0 to 100 scale, 0 no effect, 100 complete control
[12] = Preemergence, 500 g ai/ha, visual rating on 0 to 100 scale (0 no effect, 100 complete control)

O=C1NCC(c2ccc(F)c(F)c2)C1C(=O)Nc1cccc(F)c1F (racemic) [Compound 101]
Plant response rating, Velvetleaf (velvetleaf; [1]): 50 | Plant response rating, Velvetleaf (velvetleaf; [2]): 70 | Velvetleaf plant response rating (velvetleaf; 125 g ai/ha): 30 | Plant response rating, Velvetleaf (velvetleaf; [3]): 40

Cc1c(F)cccc1NC(=O)C1C(=O)NCC1c1ccc(F)c(F)c1 (racemic) [Compound 106]
Plant response rating, Velvetleaf (velvetleaf; Postemergence, 1000 g ai/ha, 0 to 100 scale (0 no effect, 100 complete control)): 40 | Plant response rating, Velvetleaf (velvetleaf; preemergence, 1000 g ai/ha, 0 to 100 scale): 0

Cc1ccccc1NC(=O)C1C(=O)NCC1c1cccc(C(F)(F)F)c1 (racemic) [Compound 109]
Plant response rating, Ryegrass, Italian (ryegrass, Italian; [1]): 20 | Plant response rating, Ryegrass, Italian (ryegrass, Italian; [2]): 30 | Ryegrass, Italian plant response rating (ryegrass, Italian; Preemergence, 125 g ai/ha, visual rating on 0 to 100 scale (0 no effect, 100 complete control)): 0 | Plant response rating, Ryegrass, Italian (ryegrass, Italian; [3]): 50

O=C1NCC(c2ccc(F)cc2)C1C(=O)Nc1ccc(F)c(F)c1F (racemic) [Compound 120]
Plant response rating, Ryegrass, Italian (ryegrass, Italian; [4]): 30 | Plant response rating, Ryegrass, Italian (ryegrass, Italian; [1]): 30 | Ryegrass, Italian plant response rating (0 to 100 scale, 0 is no effect, 100 is complete control) (ryegrass, Italian; Postemergence, 500 g ai/ha): 50 | Plant response rating, Ryegrass, Italian (ryegrass, Italian; [3]): 50

O=C1NCC(c2cccc(C(F)F)c2)C1C(=O)Nc1ccccc1F (racemic) [Compound 210]
Plant response rating, Ryegrass, Italian (ryegrass, Italian; [4]): 0 | Plant response rating, Ryegrass, Italian (ryegrass, Italian; [5]): 0 | Ryegrass, Italian plant response rating (0 to 100 scale, 0 is no effect, 100 is complete control) (ryegrass, Italian; Postemergence, 500 g ai/ha): 50 | Plant response rating, Ryegrass, Italian (ryegrass, Italian; [6]): 50

O=C1NCC(c2cc(F)cc(F)c2)C1C(=O)Nc1ccccc1Cl (racemic) [Compound 280]
Plant response rating, Ryegrass, Italian (ryegrass, Italian; [7]): 0 | Plant response rating, Ryegrass, Italian (ryegrass, Italian; [2]): 0 | Plant response rating, Ryegrass, Italian (ryegrass, Italian; [8]): 0 | Plant response rating, Ryegrass, Italian (ryegrass, Italian; [6]): 0

O=C1NCCC1C(=O)N(c1ccc(F)c(F)c1)c1ccccc1F (stereo not shown) [Compound 5, N-(3,4-difluorophenyl)-N-(2-fluorophenyl)-2-oxo-3-pyrrolidinecarboxamide]
pest or weed control at 500 g/ha (velvetleaf; [9]): 0% | pest or weed control at 500 g/ha (velvetleaf; [10]): 0% | Velvetleaf plant response rating (velvetleaf; 125 g ai/ha): 0

O=C1NCC(c2cc(F)c(F)c(F)c2)C1C(=O)Nc1cccc(F)c1F (stereo not shown) [Compound 48]
Plant response rating, Velvetleaf (velvetleaf; [1]): 0 | Plant response rating, Velvetleaf (velvetleaf; [2]): 20 | Velvetleaf plant response rating (velvetleaf; 125 g ai/ha): 0 | Plant response rating, Velvetleaf (velvetleaf; [3]): 0

O=C1NCC(c2ccc(F)c(Cl)c2)C1C(=O)Nc1ccccc1F (stereo not shown) [Compound 60]
Plant response rating, Velvetleaf (velvetleaf; [1]): 0 | Plant response rating, Velvetleaf (velvetleaf; [2]): 0 | Velvetleaf plant response rating (velvetleaf; 125 g ai/ha): 0 | Plant response rating, Velvetleaf (velvetleaf; [3]): 0

O=C1NCC(c2cccc(OC(F)(F)F)c2)C1C(=O)Nc1ccccc1F (stereo not shown) [Compound 69]
Plant response rating, Velvetleaf (velvetleaf; [1]): 20 | Plant response rating, Velvetleaf (velvetleaf; [2]): 30 | Velvetleaf plant response rating (velvetleaf; 125 g ai/ha): 0 | Plant response rating, Velvetleaf (velvetleaf; [3]): 0

O=C1NCC(c2ccc(C(F)(F)F)cc2)C1C(=O)Nc1ccccc1F (stereo not shown) [Compound 79, N-(2-fluorophenyl)-2-oxo-4-[4-(trifluoromethyl)phenyl]-3-pyrrolidinecarboxamide]
pest or weed control at 125 g/ha (velvetleaf; [11]): 10% | pest or weed control at 500 g/ha (velvetleaf; [9]): 60% | pest or weed control at 500 g/ha (velvetleaf; [10]): 30% | Velvetleaf plant response rating (velvetleaf; 125 g ai/ha): 0

O=C1NCC(Br)(c2ccccc2)C1C(=O)Nc1ccccc1F (stereo not shown) [Compound 92, 4-bromo-N-(2-fluorophenyl)-2-oxo-4-phenyl-3-pyrrolidinecarboxamide]
pest or weed control at 125 g/ha (velvetleaf; [11]): 0% | pest or weed control at 500 g/ha (velvetleaf; [9]): 0% | pest or weed control at 500 g/ha (velvetleaf; [10]): 0% | Velvetleaf plant response rating (velvetleaf; 125 g ai/ha): 0

O=C1NCC(c2ccccc2)C1(Br)C(=O)Nc1ccccc1F (stereo not shown) [Compound 93, 3-bromo-N-(2-fluorophenyl)-2-oxo-4-phenyl-3-pyrrolidinecarboxamide]
pest or weed control at 125 g/ha (velvetleaf; [11]): 0% | pest or weed control at 500 g/ha (velvetleaf; [9]): 0% | pest or weed control at 500 g/ha (velvetleaf; [10]): 0% | Velvetleaf plant response rating (velvetleaf; 125 g ai/ha): 0

O=C1NCC(c2ccc(Cl)cc2)C1C(=O)Nc1cccc(F)c1F (stereo not shown) [Compound 218]
Plant response rating, Ryegrass, Italian (ryegrass, Italian; [4]): 40 | Plant response rating, Ryegrass, Italian (ryegrass, Italian; [5]): 0 | Ryegrass, Italian plant response rating (0 to 100 scale, 0 is no effect, 100 is complete control) (ryegrass, Italian; Postemergence, 500 g ai/ha): 30 | Plant response rating, Ryegrass, Italian (ryegrass, Italian; [6]): 60

O=C1NCC(c2cccc(OC(F)F)c2)C1C(=O)Nc1cccc(F)c1F (stereo not shown) [Compound 224]
Plant response rating, Ryegrass, Italian (ryegrass, Italian; [4]): 60 | Plant response rating, Ryegrass, Italian (ryegrass, Italian; [5]): 50 | Ryegrass, Italian plant response rating (0 to 100 scale, 0 is no effect, 100 is complete control) (ryegrass, Italian; Postemergence, 500 g ai/ha): 60 | Plant response rating, Ryegrass, Italian (ryegrass, Italian; [6]): 70

CN1CC(c2ccc(F)c(F)c2)C(C(=O)Nc2cccc(F)c2F)C1=O (stereo not shown) [Compound 303]
Plant response rating, Ryegrass, Italian (ryegrass, Italian; [7]): 40 | Plant response rating, Ryegrass, Italian (ryegrass, Italian; [2]): 60 | Plant response rating, Ryegrass, Italian (ryegrass, Italian; [8]): 30 | Ryegrass, Italian plant response rating (ryegrass, Italian; [12]): 40

CN1CC(c2cccc(C(F)(F)F)c2)C(C(=O)Nc2cccc(F)c2F)C1=O (stereo not shown) [Compound 305]
Plant response rating, Ryegrass, Italian (ryegrass, Italian; [7]): 60 | Plant response rating, Ryegrass, Italian (ryegrass, Italian; [2]): 70 | Plant response rating, Ryegrass, Italian (ryegrass, Italian; [8]): 70 | Ryegrass, Italian plant response rating (ryegrass, Italian; [12]): 90

CN1CC(c2ccc(C(F)(F)F)cc2)C(C(=O)Nc2cccc(F)c2F)C1=O (stereo not shown) [Compound 306]
Plant response rating, Ryegrass, Italian (ryegrass, Italian; [7]): 50 | Plant response rating, Ryegrass, Italian (ryegrass, Italian; [2]): 60 | Plant response rating, Ryegrass, Italian (ryegrass, Italian; [8]): 40 | Ryegrass, Italian plant response rating (ryegrass, Italian; [12]): 80

O=C1NCC(c2cccc(Br)c2)C1C(=O)Nc1ccc(F)c(F)c1F (stereo not shown) [Compound 310]
Plant response rating, Ryegrass, Italian (ryegrass, Italian; [7]): 30 | Plant response rating, Ryegrass, Italian (ryegrass, Italian; [2]): 30 | Plant response rating, Ryegrass, Italian (ryegrass, Italian; [8]): 30 | Ryegrass, Italian plant response rating (ryegrass, Italian; [12]): 40

CC(C)c1cccc(C2CNC(=O)C2C(=O)Nc2ccccc2F)c1 (stereo not shown) [Compound 318]
Plant response rating, Ryegrass, Italian (ryegrass, Italian; [7]): 20 | Plant response rating, Ryegrass, Italian (ryegrass, Italian; [2]): 40 | Plant response rating, Ryegrass, Italian (ryegrass, Italian; [8]): 20 | Ryegrass, Italian plant response rating (ryegrass, Italian; [12]): 60

CC(C)c1cccc(C2CNC(=O)C2C(=O)Nc2cccc(F)c2F)c1 (stereo not shown) [Compound 319]
Plant response rating, Ryegrass, Italian (ryegrass, Italian; [7]): 30 | Plant response rating, Ryegrass, Italian (ryegrass, Italian; [2]): 50 | Plant response rating, Ryegrass, Italian (ryegrass, Italian; [8]): 30 | Ryegrass, Italian plant response rating (ryegrass, Italian; [12]): 60

O=C1NCC(c2cccc(OC(F)F)c2)C1C(=O)Nc1ccccc1F (stereo not shown) [Compound 323]
Plant response rating, Ryegrass, Italian (ryegrass, Italian; [7]): 30 | Plant response rating, Ryegrass, Italian (ryegrass, Italian; [2]): 30 | Plant response rating, Ryegrass, Italian (ryegrass, Italian; [8]): 20 | Ryegrass, Italian plant response rating (ryegrass, Italian; [12]): 30

O=C1NCC(c2cccc(C(F)(F)F)c2)C1C(=O)Nc1ccc(F)c(F)c1F (stereo not shown) [Compound 345]
Plant response rating, Ryegrass, Italian (ryegrass, Italian; [7]): 50 | Plant response rating, Ryegrass, Italian (ryegrass, Italian; [8]): 0 | Ryegrass, Italian plant response rating (ryegrass, Italian; [12]): 40

O=C1NCC(c2ccc(F)c(F)c2)C1C(=O)Nc1ccc(F)c(F)c1F (stereo not shown) [Compound 346]
Plant response rating, Ryegrass, Italian (ryegrass, Italian; [7]): 20 | Plant response rating, Ryegrass, Italian (ryegrass, Italian; [8]): 0 | Ryegrass, Italian plant response rating (ryegrass, Italian; [12]): 30
